Source: ChEMBL document CHEMBL4393697, “Lipophilic efficient phenylthiazoles with potent undecaprenyl pyrophosphatase inhibitory activity” (Eur J Med Chem, 2019)
Values after ≈ are worked out from the molar mass of the structure shown. Active and inactive are the calls of the source. No cut-off for these calls is given here.

Columns and labels:
[1] = tested on: Streptococcus pneumoniae; experiment: Antibacterial activity against Methicillin resistant Streptococcus pneumoniae ATCC 700677 assessed as reduction in bacterial cell growth incubated for 18 to 20 hrs by broth microdilution method; type: functional
[2] = tested on: Staphylococcus aureus; experiment: Bactericidal activity against vancomycin resistant Staphylococcus aureus VRS10 assessed as reduction in bacterial cell growth incubated for 18 to 20 hrs followed by re-plating on tryptic soy agar plates at 37 degC for 18 hrs by broth microdilution assay; type: functional
[3] = tested on: Staphylococcus aureus; experiment: Bactericidal activity against methicillin-resistant Staphylococcus aureus USA300 assessed as reduction in bacterial cell growth incubated for 18 to 20 hrs followed by re-plating on tryptic soy agar plates at 37 degC for 18 hrs by broth microdilution assay; type: functional
[4] = tested on: Streptococcus pneumoniae; experiment: Bactericidal activity against Cephalosporin resistant Streptococcus pneumoniae ATCC 51916 assessed as reduction in bacterial cell growth incubated for 18 to 20 hrs followed by re-plating on tryptic soy agar plates at 37 degC for 18 hrs by broth microdilution assay; type: functional
[5] = tested on: Acinetobacter baumannii; experiment: Antibacterial activity against Acinetobacter baumannii ATCC 19606 assessed as reduction in bacterial cell growth incubated for 18 to 20 hrs by broth microdilution method; type: functional
[6] = tested on: Staphylococcus aureus; experiment: Bactericidal activity against Staphylococcus aureus ATCC 6538 assessed as reduction in bacterial cell growth incubated for 18 to 20 hrs followed by re-plating on tryptic soy agar plates at 37 degC for 18 hrs by broth microdilution assay; type: functional
[7] = tested on: Escherichia coli; experiment: BActericidal activity against Escherichia coli BW25113 assessed as reduction in bacterial cell growth incubated for 18 to 20 hrs followed by re-plating on tryptic soy agar plates at 37 degC for 18 hrs by broth microdilution assay; type: functional
[8] = tested on: Staphylococcus epidermidis; experiment: Bactericidal activity against methicillin resistant Staphylococcus epidermidis NRS101 assessed as reduction in bacterial cell growth incubated for 18 to 20 hrs followed by re-plating on tryptic soy agar plates at 37 degC for 18 hrs by broth microdilution assay; type: functional
[9] = tested on: Enterococcus faecalis; experiment: Antibacterial activity against vancomycin resistant Enterococcus faecalis ATCC 51299 assessed as reduction in bacterial cell growth incubated for 18 to 20 hrs by broth microdilution method; type: functional
[10] = tested on: Staphylococcus aureus; experiment: Bactericidal activity against vancomycin resistant Staphylococcus aureus VRS11a assessed as reduction in bacterial cell growth incubated for 18 to 20 hrs followed by re-plating on tryptic soy agar plates at 37 degC for 18 hrs by broth microdilution assay; type: functional
[11] = tested on: Streptococcus pneumoniae; experiment: Bactericidal activity against Methicillin resistant Streptococcus pneumoniae ATCC 700677 assessed as reduction in bacterial cell growth incubated for 18 to 20 hrs followed by re-plating on tryptic soy agar plates at 37 degC for 18 hrs by broth microdilution assay; type: functional
[12] = tested on: Staphylococcus aureus; experiment: Antibacterial activity against Staphylococcus aureus NRS107 assessed as reduction in bacterial cell growth incubated for 18 to 20 hrs by broth microdilution method; type: functional
[13] = tested on: Staphylococcus aureus; experiment: Antibacterial activity against vancomycin resistant Staphylococcus aureus VRS10 assessed as reduction in bacterial cell growth incubated for 18 to 20 hrs by broth microdilution method; type: functional
[14] = tested on: Enterococcus faecium; experiment: Bactericidal activity against vancomycin resistant Enterococcus faecium ATCC 700221 assessed as reduction in bacterial cell growth incubated for 18 to 20 hrs followed by re-plating on tryptic soy agar plates at 37 degC for 18 hrs by broth microdilution assay; type: functional
[15] = tested on: Listeria monocytogenes; experiment: Bactericidal activity against Listeria monocytogenes ATCC 19111 assessed as reduction in bacterial cell growth incubated for 18 to 20 hrs followed by re-plating on tryptic soy agar plates at 37 degC for 18 hrs by broth microdilution assay; type: functional
[16] = tested on: Staphylococcus aureus; experiment: Bactericidal activity against vancomycin resistant Staphylococcus aureus VRS12 assessed as reduction in bacterial cell growth incubated for 18 to 20 hrs followed by re-plating on tryptic soy agar plates at 37 degC for 18 hrs by broth microdilution assay; type: functional
[17] = tested on: Staphylococcus aureus; experiment: Bactericidal activity against Staphylococcus aureus NRS107 assessed as reduction in bacterial cell growth incubated for 18 to 20 hrs followed by re-plating on tryptic soy agar plates at 37 degC for 18 hrs by broth microdilution assay; type: functional
[18] = tested on: Pseudomonas aeruginosa; experiment: Antibacterial activity against Pseudomonas aeruginosa ATCC 15442 assessed as reduction in bacterial cell growth incubated for 18 to 20 hrs by broth microdilution method; type: functional
[19] = tested on: Staphylococcus aureus; experiment: Antibacterial activity against methicillin-resistant Staphylococcus aureus USA300 assessed as reduction in bacterial cell growth incubated for 18 to 20 hrs by broth microdilution method; type: functional
[20] = tested on: Staphylococcus aureus; experiment: Antibacterial activity against methicillin resistant Staphylococcus aureus USA400 assessed as reduction in bacterial cell growth incubated for 18 to 20 hrs by broth microdilution method; type: functional
[21] = tested on: Staphylococcus aureus; experiment: Antibacterial activity against vancomycin resistant Staphylococcus aureus VRS12 assessed as reduction in bacterial cell growth incubated for 18 to 20 hrs by broth microdilution method; type: functional
[22] = tested on: Enterococcus faecium; experiment: Antibacterial activity against vancomycin resistant Enterococcus faecium ATCC 700221 assessed as reduction in bacterial cell growth incubated for 18 to 20 hrs by broth microdilution method; type: functional
[23] = tested on: Escherichia coli; experiment: Bactericidal activity against Escherichia coli JW55031 harboring deltatolC mutant assessed as reduction in bacterial cell growth incubated for 18 to 20 hrs followed by re-plating on tryptic soy agar plates at 37 degC for 18 hrs by broth microdilution assay; type: functional
[24] = tested on: Klebsiella pneumoniae; experiment: Bactericidal activity against Klebsiella pneumoniae BAA-1706 assessed as reduction in bacterial cell growth incubated for 18 to 20 hrs followed by re-plating on tryptic soy agar plates at 37 degC for 18 hrs by broth microdilution assay; type: functional
[25] = tested on: Klebsiella pneumoniae; experiment: Antibacterial activity against Klebsiella pneumoniae BAA-1706 assessed as reduction in bacterial cell growth incubated for 18 to 20 hrs by broth microdilution method; type: functional
[26] = tested on: Acinetobacter baumannii; experiment: Bactericidal activity against Acinetobacter baumannii ATCC 19606 assessed as reduction in bacterial cell growth incubated for 18 to 20 hrs followed by re-plating on tryptic soy agar plates at 37 degC for 18 hrs by broth microdilution assay; type: functional
[27] = tested on: Staphylococcus aureus; experiment: Antibacterial activity against Staphylococcus aureus ATCC 6538 assessed as reduction in bacterial cell growth incubated for 18 to 20 hrs by broth microdilution method; type: functional
[28] = tested on: Enterococcus faecalis; experiment: Bactericidal activity against vancomycin resistant Enterococcus faecalis ATCC 51299 assessed as reduction in bacterial cell growth incubated for 18 to 20 hrs followed by re-plating on tryptic soy agar plates at 37 degC for 18 hrs by broth microdilution assay; type: functional
[29] = tested on: Staphylococcus aureus; experiment: Bactericidal activity against methicillin resistant Staphylococcus aureus NRS119 assessed as reduction in bacterial cell growth incubated for 18 to 20 hrs followed by re-plating on tryptic soy agar plates at 37 degC for 18 hrs by broth microdilution assay; type: functional
[30] = tested on: Staphylococcus aureus; experiment: Antibacterial activity against methicillin resistant Staphylococcus aureus NRS119 assessed as reduction in bacterial cell growth incubated for 18 to 20 hrs by broth microdilution method; type: functional
[31] = tested on: Pseudomonas aeruginosa; experiment: Bactericidal activity against Pseudomonas aeruginosa ATCC 15442 assessed as reduction in bacterial cell growth incubated for 18 to 20 hrs followed by re-plating on tryptic soy agar plates at 37 degC for 18 hrs by broth microdilution assay; type: functional
[32] = Solubility of compound in PBS after 2 hrs by turbidity based absorbance analysis; type: physicochemical
[33] = tested on: Staphylococcus aureus; experiment: Antibacterial activity against intracellular methicillin resistant Staphylococcus aureus USA400 infected in mouse J774 cells assessed as log10 reduction of viable bacterial cells incubated for 24 hrs followed by re-plating on tryptic soy agar plates at 37 degC for 18 to 22 hrs by broth microdilution assay; type: functional

SMILES | MIC [1] | MBC [2] | MBC [3] | MBC [4] | MIC [5] | MBC [6] | MBC [7] | MBC [8] | MIC [9] | MBC [10] | MBC [11] | MIC [12] | MIC [13] | MBC [14] | MBC [15] | MBC [16] | MBC [17] | MIC [18] | MIC [19] | MIC [20] | other results
C/C(=N\NC(=N)N)c1sc(-c2ccc(C#CC(C)(C)O)cc2)nc1C | 4 µg/mL (≈ 11.3 µM) | 16 µg/mL (≈ 45 µM) | 16 µg/mL (≈ 45 µM) | 8 µg/mL (≈ 22.5 µM) | 64 µg/mL (≈ 180 µM) | 4 µg/mL (≈ 11.3 µM) | > 64 µg/mL | 4 µg/mL (≈ 11.3 µM) | 4 µg/mL (≈ 11.3 µM) | 4 µg/mL (≈ 11.3 µM) | 8 µg/mL (≈ 22.5 µM) | 4 µg/mL (≈ 11.3 µM) | 4 µg/mL (≈ 11.3 µM) | 4 µg/mL (≈ 11.3 µM) | 8 µg/mL (≈ 22.5 µM) | 16 µg/mL (≈ 45 µM) | 4 µg/mL (≈ 11.3 µM) | > 64 µg/mL | 4 µg/mL (≈ 11.3 µM) | 2 µg/mL (≈ 5.63 µM) | MIC [21]: 4 µg/mL (≈ 11.3 µM); MIC [22]: 2 µg/mL (≈ 5.63 µM); MBC [23]: 16 µg/mL (≈ 45 µM); MBC [24]: > 64 µg/mL; MIC [25]: > 64 µg/mL; MBC [26]: 64 µg/mL (≈ 180 µM); MIC [27]: 2 µg/mL (≈ 5.63 µM); MBC [28]: 8 µg/mL (≈ 22.5 µM); MBC [29]: 4 µg/mL (≈ 11.3 µM); MIC [30]: 2 µg/mL (≈ 5.63 µM); MBC [31]: > 64 µg/mL; solubility kinetic at 2 h [32]: 320 µM (≈ 114 µg/mL)
C/C(=N\NC(=N)N)c1sc(-c2ccc(C#CC3(O)CCCCC3)cc2)nc1C | 4 µg/mL (≈ 10.1 µM) | 8 µg/mL (≈ 20.2 µM) | 16 µg/mL (≈ 40.5 µM) | 8 µg/mL (≈ 20.2 µM) | 64 µg/mL (≈ 162 µM) | 4 µg/mL (≈ 10.1 µM) | > 64 µg/mL | 4 µg/mL (≈ 10.1 µM) | 8 µg/mL (≈ 20.2 µM) | 8 µg/mL (≈ 20.2 µM) | 8 µg/mL (≈ 20.2 µM) | 4 µg/mL (≈ 10.1 µM) | 2 µg/mL (≈ 5.06 µM) | 1 µg/mL (≈ 2.53 µM) | 8 µg/mL (≈ 20.2 µM) | 8 µg/mL (≈ 20.2 µM) | 8 µg/mL (≈ 20.2 µM) | > 64 µg/mL | 4 µg/mL (≈ 10.1 µM) | 4 µg/mL (≈ 10.1 µM) | Activity call [33]: Active; MIC [21]: 4 µg/mL (≈ 10.1 µM); MIC [22]: 1 µg/mL (≈ 2.53 µM); MBC [23]: 32 µg/mL (≈ 80.9 µM); MBC [24]: > 64 µg/mL; MIC [25]: > 64 µg/mL; MBC [26]: 64 µg/mL (≈ 162 µM); MIC [27]: 2 µg/mL (≈ 5.06 µM); MBC [28]: 16 µg/mL (≈ 40.5 µM); MBC [29]: 4 µg/mL (≈ 10.1 µM); MIC [30]: 2 µg/mL (≈ 5.06 µM); MBC [31]: > 64 µg/mL; solubility kinetic at 2 h [32]: 147 µM (≈ 58.1 µg/mL)
